Legend:
HCT-116 = experiment: Growth inhibition of human HCT116 cells after 48 hrs by sulforhodamine B assay; assay type: functional; details: HCT-116, 48 h
NCI/ADR-RES = experiment: Growth inhibition of human NCI/ADR-RES cells after 48 hrs by sulforhodamine B assay; assay type: functional
SK-MEL-5 = experiment: Growth inhibition of human SK-MEL-5 cells after 48 hrs by sulforhodamine B assay; assay type: functional; details: SK-MEL-5, 48 h
HCT-15 = experiment: Growth inhibition of human HCT15 cells after 48 hrs by sulforhodamine B assay; assay type: functional; details: HCT-15, 48 h
HOP-92 = experiment: Growth inhibition of human HOP92 cells after 48 hrs by sulforhodamine B assay; assay type: functional; details: HOP-92, 48 h
OVCAR-3 = experiment: Growth inhibition of human OVCAR-3 cells after 48 hrs by sulforhodamine B assay; assay type: functional; details: OVCAR-3, 48 h
MOLT-4 = experiment: Growth inhibition of human MOLT4 cells after 48 hrs by sulforhodamine B assay; assay type: functional; details: MOLT-4, 48 h
MDA-MB-231 = experiment: Growth inhibition of human MDA-MB-231 cells after 48 hrs by sulforhodamine B assay; assay type: functional; details: MDA-MB-231, 48 h
BT-549 = experiment: Growth inhibition of human BT549 cells after 48 hrs by sulforhodamine B assay; assay type: functional; details: BT-549, 48 h
SN12C = experiment: Growth inhibition of human SN12C cells after 48 hrs by sulforhodamine B assay; assay type: functional
Malme-3M = experiment: Growth inhibition of human MALME-3M cells after 48 hrs by sulforhodamine B assay; assay type: functional
HT-29 = experiment: Growth inhibition of human HT-29 cells after 48 hrs by sulforhodamine B assay; assay type: functional; details: HT-29, 48 h
NCI-H322M = experiment: Growth inhibition of human NCI-H322M cells after 48 hrs by sulforhodamine B assay; assay type: functional
U-251 = experiment: Growth inhibition of human U251 cells after 48 hrs by sulforhodamine B assay; assay type: functional; details: U-251, 48 h
HOP-62 = experiment: Growth inhibition of human HOP62 cells after 48 hrs by sulforhodamine B assay; assay type: functional; details: HOP-62, 48 h
MDA-MB-435 = experiment: Growth inhibition of human MDA-MB-435 cells after 48 hrs by sulforhodamine B assay; assay type: functional; details: MDA-MB-435, 48 h
EKVX = experiment: Growth inhibition of human EKVX cells after 48 hrs by sulforhodamine B assay; assay type: functional
COLO 205 = experiment: Growth inhibition of human COLO205 cells after 48 hrs by sulforhodamine B assay; assay type: functional; details: COLO 205, 48 h
SNB-19 = experiment: Growth inhibition of human SNB19 cells after 48 hrs by sulforhodamine B assay; assay type: functional; details: SNB-19, 48 h
RXF 393 = experiment: Growth inhibition of human RXF393 cells after 48 hrs by sulforhodamine B assay; assay type: functional; details: RXF 393, 48 h
[1] = Growth inhibition of human Hs 578T cells after 48 hrs by sulforhodamine B assay; assay type: functional
SK-MEL-2 = experiment: Growth inhibition of human SK-MEL-2 cells after 48 hrs by sulforhodamine B assay; assay type: functional; details: SK-MEL-2, 48 h
NCI-H23 = experiment: Growth inhibition of human NCI-H23 cells after 48 hrs by sulforhodamine B assay; assay type: functional; details: NCI-H23, 48 h
OVCAR-4 = experiment: Growth inhibition of human OVCAR4 cells after 48 hrs by sulforhodamine B assay; assay type: functional; details: OVCAR-4, 48 h
SF-268 = experiment: Growth inhibition of human SF268 cells after 48 hrs by sulforhodamine B assay; assay type: functional; details: SF-268, 48 h
SK-MEL-28 = experiment: Growth inhibition of human SK-MEL-28 cells after 48 hrs by sulforhodamine B assay; assay type: functional; details: SK-MEL-28, 48 h
OVCAR-8 = experiment: Growth inhibition of human OVCAR8 cells after 48 hrs by sulforhodamine B assay; assay type: functional; details: OVCAR-8, 48 h
MCF7 = experiment: Growth inhibition of human MCF7 cells after 48 hrs by sulforhodamine B assay; assay type: functional; details: MCF7, 48 h
A549 = experiment: Growth inhibition of human A549 cells after 48 hrs by sulforhodamine B assay; assay type: functional; details: A549, 48 h
NCI-H522 = experiment: Growth inhibition of human NCI-H522 cells after 48 hrs by sulforhodamine B assay; assay type: functional; details: NCI-H522, 48 h
TK-10 = experiment: Growth inhibition of human TK10 cells after 48 hrs by sulforhodamine B assay; assay type: functional; details: TK-10, 48 h
UO-31 = experiment: Growth inhibition of human UO31 cells after 48 hrs by sulforhodamine B assay; assay type: functional; details: UO-31, 48 h
SW-620 = experiment: Growth inhibition of human SW620 cells after 48 hrs by sulforhodamine B assay; assay type: functional; details: SW-620, 48 h
IGROV-1 = experiment: Growth inhibition of human IGROV1 cells after 48 hrs by sulforhodamine B assay; assay type: functional; details: IGROV-1, 48 h
ACHN = experiment: Growth inhibition of human ACHN cells after 48 hrs by sulforhodamine B assay; assay type: functional
SNB-75 = experiment: Growth inhibition of human SNB75 cells after 48 hrs by sulforhodamine B assay; assay type: functional; details: SNB-75, 48 h
A498 = experiment: Growth inhibition of human A498 cells after 48 hrs by sulforhodamine B assay; assay type: functional; details: A498, 48 h
K562 = experiment: Growth inhibition of human K562 cells after 48 hrs by sulforhodamine B assay; assay type: functional; details: K562, 48 h
CAKI-1 = experiment: Growth inhibition of human Caki1 cells after 48 hrs by sulforhodamine B assay; assay type: functional; details: CAKI-1, 48 h
NCI-H460 = experiment: Growth inhibition of human NCI-H460 cells after 48 hrs by sulforhodamine B assay; assay type: functional; details: NCI-H460, 48 h
Plasmodium falciparum = experiment: Antimalarial activity after 72 hrs against chloroquine-resistant Plasmodium falciparum W2 infected erythrocytes by LDH assay; assay type: functional, organism-based; details: W2, 72 h
KM12 = experiment: Growth inhibition of human KM12 cells after 48 hrs by sulforhodamine B assay; assay type: functional; details: KM12, 48 h
LOX IMVI = experiment: Growth inhibition of human LOXIMVI cells after 48 hrs by sulforhodamine B assay; assay type: functional
CCRF-CEM = experiment: Growth inhibition of human CCRF-CEM cells after 48 hrs by sulforhodamine B assay; assay type: functional
786-0 = experiment: Growth inhibition of human 786-0 cells after 48 hrs by sulforhodamine B assay; assay type: functional; details: 786-0, 48 h
SF-539 = experiment: Growth inhibition of human SF539 cells after 48 hrs by sulforhodamine B assay; assay type: functional; details: SF-539, 48 h
HL-60 = experiment: Growth inhibition of human HL-60(TB) cells after 48 hrs by sulforhodamine B assay; assay type: functional; details: HL-60, 48 h
[2] = Selectivity index, ratio of TC50 for african green monkey (Cercopithecus aethiops) Vero cells to IC50 for chloroquine-resistant Plasmodium falciparum W2; assay type: toxicity, cell-based
HCC 2998 = experiment: Growth inhibition of human HCC2998 cells after 48 hrs by sulforhodamine B assay; assay type: functional; details: HCC 2998, 48 h
SR = experiment: Growth inhibition of human SR cells after 48 hrs by sulforhodamine B assay; assay type: functional

Question: What does the source list for `C[C@H]1[C@@H](OCC(CO[C@H]2O[C@@H]3O[C@@]4(C)CC[C@H]5[C@H](C)CC[C@@H]([C@H]2C)[C@@]35OO4)OC(=O)CCC(=O)O)O[C@@H]2O[C@@]3(C)CC[C@H]4[C@H](C)CC[C@@H]1[C@@]24OO3` (some centres not stated)?
Answer: GI50 (HCT-116): < 10 nM; GI50 (NCI/ADR-RES): 207 nM; GI50 (SK-MEL-5): 147 nM; GI50 (HCT-15): < 10 nM; GI50 (HOP-92): 121 nM; GI50 (OVCAR-3): 20 nM; GI50 (MOLT-4): 290 nM; GI50 (MDA-MB-231): 345 nM; GI50 (BT-549): 724 nM; GI50 (SN12C): 16 nM; GI50 (Malme-3M): 4050 nM; GI50 (HT-29): < 10 nM; GI50 (NCI-H322M): 10200 nM; GI50 (U-251): < 10 nM; GI50 (HOP-62): 86 nM; GI50 (MDA-MB-435): 13 nM; GI50 (EKVX): 470 nM; GI50 (COLO 205): < 10 nM; GI50 (SNB-19): 10100 nM; GI50 (RXF 393): < 10 nM; GI50 [1]: 186 nM; GI50 (SK-MEL-2): 5200 nM; GI50 (NCI-H23): 10 nM; GI50 (OVCAR-4): 58 nM; GI50 (SF-268): 2180 nM; GI50 (SK-MEL-28): 8380 nM; GI50 (OVCAR-8): 15 nM; GI50 (MCF7): < 10 nM; GI50 (A549): 69 nM; GI50 (NCI-H522): 63 nM; GI50 (TK-10): 211 nM; GI50 (UO-31): 355 nM; GI50 (SW-620): 29 nM; GI50 (IGROV-1): 11100 nM; GI50 (ACHN): 126 nM; GI50 (SNB-75): 22100 nM; GI50 (A498): 13800 nM; GI50 (K562): 230 nM; GI50 (CAKI-1): 44 nM; GI50 (NCI-H460): 33 nM; IC50 (Plasmodium falciparum): 2100 nM; GI50 (KM12): < 10 nM; GI50 (LOX IMVI): < 10 nM; GI50 (CCRF-CEM): 78 nM; GI50 (786-0): 23 nM; GI50 (SF-539): 616 nM; GI50 (HL-60): 11 nM

Question: What does the source list for `C[C@H]1[C@H](OCCO[C@H]2O[C@@H]3O[C@@]4(C)CC[C@H]5[C@H](C)CC[C@@H]([C@H]2C)[C@@]35OO4)O[C@@H]2O[C@@]3(C)CC[C@H]4[C@H](C)CC[C@@H]1[C@@]24OO3`?
Answer: GI50 (HCT-116): 30 nM; GI50 (NCI/ADR-RES): 55 nM; GI50 (SK-MEL-5): 34 nM; GI50 (HCT-15): 17 nM; GI50 (HOP-92): 52 nM; GI50 (OVCAR-3): 1280 nM; GI50 (MOLT-4): 15 nM; GI50 (MDA-MB-231): 534 nM; GI50 (BT-549): 74 nM; GI50 (SN12C): 55 nM; GI50 (Malme-3M): 235 nM; GI50 (HT-29): 38 nM; selectivity ratio [2]: > 37; GI50 (NCI-H322M): 7900 nM; GI50 (U-251): 49 nM; GI50 (HOP-62): 11600 nM; GI50 (MDA-MB-435): 45 nM; GI50 (EKVX): 40 nM; GI50 (COLO 205): 15 nM; GI50 (SNB-19): 8260 nM; GI50 (RXF 393): 54 nM; GI50 [1]: 7650 nM; GI50 (SK-MEL-2): 212 nM; GI50 (HCC 2998): 67 nM; GI50 (NCI-H23): 36 nM; GI50 (OVCAR-4): 41 nM; GI50 (SF-268): 7540 nM; GI50 (SK-MEL-28): 727 nM; GI50 (OVCAR-8): 34 nM; GI50 (MCF7): 28 nM; GI50 (A549): 59 nM; GI50 (NCI-H522): 680 nM; GI50 (TK-10): 64 nM; GI50 (UO-31): 35 nM; GI50 (SR): 25 nM; GI50 (SW-620): 25 nM; GI50 (IGROV-1): 8280 nM; GI50 (ACHN): 224 nM; GI50 (SNB-75): 366 nM; GI50 (A498): 8110 nM; GI50 (K562): 20 nM; GI50 (CAKI-1): 90 nM; GI50 (NCI-H460): 46 nM; IC50 (Plasmodium falciparum): 21900 nM; GI50 (KM12): 33 nM; GI50 (LOX IMVI): 30 nM; GI50 (CCRF-CEM): 25 nM; GI50 (786-0): 324 nM; GI50 (SF-539): 63 nM; GI50 (HL-60): 15 nM
